Test results: the NIST ThermoML archive (doi:10.1021/acs.jced.7b00694)

Experiment: xn = mol fraction of the nth substance listed
Conditions: Gas, Buoyancy - hydrostatic balance with magnetic suspension - one sinker

[HH] [hydrogen] + N#N
Conditions | mass density [kg/m3]
240.05 K, 998 kPa, x2 = 0.95 | 13.46
240.05 K, 1997 kPa, x2 = 0.95 | 27.15
240.05 K, 2999 kPa, x2 = 0.95 | 41.055
240.05 K, 3998 kPa, x2 = 0.95 | 55.055
240.05 K, 4998 kPa, x2 = 0.95 | 69.19
240.05 K, 5999 kPa, x2 = 0.95 | 83.412
240.05 K, 7000 kPa, x2 = 0.95 | 97.671
240.05 K, 8000 kPa, x2 = 0.95 | 111.894
240.05 K, 9001 kPa, x2 = 0.95 | 126.079
240.05 K, 10004 kPa, x2 = 0.95 | 140.187
240.05 K, 11004 kPa, x2 = 0.95 | 154.093
240.05 K, 12006 kPa, x2 = 0.95 | 167.817
240.05 K, 13008 kPa, x2 = 0.95 | 181.315
240.05 K, 14010 kPa, x2 = 0.95 | 194.555
240.05 K, 15014 kPa, x2 = 0.95 | 207.511
240.05 K, 16011 kPa, x2 = 0.95 | 220.048
240.05 K, 17007 kPa, x2 = 0.95 | 232.236
240.05 K, 18019 kPa, x2 = 0.95 | 244.268
240.05 K, 19018 kPa, x2 = 0.95 | 255.783
240.05 K, 19977 kPa, x2 = 0.95 | 266.493
240.07 K, 998 kPa, x2 = 0.9 | 12.789
240.07 K, 999 kPa, x2 = 0.5001 | 7.515
240.07 K, 1998 kPa, x2 = 0.9 | 25.761
240.07 K, 2000 kPa, x2 = 0.5001 | 14.997
240.07 K, 3000 kPa, x2 = 0.9 | 38.902
240.07 K, 3998 kPa, x2 = 0.9 | 52.1
240.07 K, 3999 kPa, x2 = 0.5001 | 29.835
240.07 K, 4998 kPa, x2 = 0.5001 | 37.187
240.07 K, 4998 kPa, x2 = 0.9 | 65.397
240.07 K, 5999 kPa, x2 = 0.5001 | 44.484
240.07 K, 5999 kPa, x2 = 0.9 | 78.743
240.07 K, 6999 kPa, x2 = 0.5001 | 51.715
240.07 K, 6999 kPa, x2 = 0.9 | 92.089
240.07 K, 8000 kPa, x2 = 0.9 | 105.416
240.07 K, 9001 kPa, x2 = 0.9 | 118.665
240.07 K, 10003 kPa, x2 = 0.9 | 131.826
240.07 K, 11003 kPa, x2 = 0.9 | 144.806
240.07 K, 12006 kPa, x2 = 0.9 | 157.633
240.07 K, 13007 kPa, x2 = 0.9 | 170.235
240.07 K, 14004 kPa, x2 = 0.9 | 182.528
240.07 K, 15010 kPa, x2 = 0.9 | 194.68
240.07 K, 16012 kPa, x2 = 0.9 | 206.497
240.07 K, 17016 kPa, x2 = 0.9 | 218.039
240.07 K, 18009 kPa, x2 = 0.9 | 229.14
240.07 K, 19021 kPa, x2 = 0.9 | 240.134
240.07 K, 19857 kPa, x2 = 0.9 | 248.956
240.08 K, 2989 kPa, x2 = 0.5001 | 22.354
240.08 K, 7999 kPa, x2 = 0.5001 | 58.867
240.08 K, 8999 kPa, x2 = 0.5001 | 65.94
240.08 K, 10002 kPa, x2 = 0.5001 | 72.937
240.08 K, 11003 kPa, x2 = 0.5001 | 79.831
240.08 K, 17004 kPa, x2 = 0.5001 | 118.935
240.08 K, 18010 kPa, x2 = 0.5001 | 125.09
240.08 K, 19066 kPa, x2 = 0.5001 | 131.423
240.09 K, 12008 kPa, x2 = 0.5001 | 86.648
240.09 K, 13002 kPa, x2 = 0.5001 | 93.298
240.09 K, 14003 kPa, x2 = 0.5001 | 99.881
240.09 K, 15003 kPa, x2 = 0.5001 | 106.346
240.09 K, 16007 kPa, x2 = 0.5001 | 112.717
250.02 K, 998 kPa, x2 = 0.95 | 12.909
250.02 K, 1998 kPa, x2 = 0.95 | 25.981
250.02 K, 2999 kPa, x2 = 0.95 | 39.211
250.02 K, 3999 kPa, x2 = 0.95 | 52.525
250.02 K, 4999 kPa, x2 = 0.95 | 65.908
250.02 K, 5999 kPa, x2 = 0.95 | 79.318
250.02 K, 6999 kPa, x2 = 0.95 | 92.739
250.02 K, 8001 kPa, x2 = 0.95 | 106.147
250.02 K, 9002 kPa, x2 = 0.95 | 119.485
250.02 K, 9998 kPa, x2 = 0.95 | 132.641
250.02 K, 11003 kPa, x2 = 0.95 | 145.769
250.02 K, 12002 kPa, x2 = 0.95 | 158.648
250.02 K, 13002 kPa, x2 = 0.95 | 171.33
250.02 K, 14006 kPa, x2 = 0.95 | 183.836
250.02 K, 15009 kPa, x2 = 0.95 | 196.059
250.02 K, 16008 kPa, x2 = 0.95 | 207.967
250.02 K, 17012 kPa, x2 = 0.95 | 219.644
250.02 K, 18015 kPa, x2 = 0.95 | 231.002
250.02 K, 19020 kPa, x2 = 0.95 | 242.075
250.02 K, 19863 kPa, x2 = 0.95 | 251.12
250.03 K, 999 kPa, x2 = 0.5001 | 7.213
250.03 K, 1999 kPa, x2 = 0.5001 | 14.386
250.03 K, 2988 kPa, x2 = 0.5001 | 21.436
250.03 K, 3998 kPa, x2 = 0.5001 | 28.596
250.03 K, 4998 kPa, x2 = 0.5001 | 35.626
250.04 K, 998 kPa, x2 = 0.9 | 12.26
250.04 K, 1998 kPa, x2 = 0.9 | 24.659
250.04 K, 2987 kPa, x2 = 0.9 | 37.024
250.04 K, 3998 kPa, x2 = 0.9 | 49.722
250.04 K, 4998 kPa, x2 = 0.9 | 62.325
250.04 K, 5999 kPa, x2 = 0.5001 | 42.6
250.04 K, 5999 kPa, x2 = 0.9 | 74.953
250.04 K, 6999 kPa, x2 = 0.5001 | 49.504
250.04 K, 6999 kPa, x2 = 0.9 | 87.557
250.04 K, 7999 kPa, x2 = 0.5001 | 56.336
250.04 K, 8000 kPa, x2 = 0.9 | 100.114
250.04 K, 8999 kPa, x2 = 0.5001 | 63.085
250.04 K, 9001 kPa, x2 = 0.9 | 112.6
250.04 K, 9995 kPa, x2 = 0.9 | 124.895
250.04 K, 9999 kPa, x2 = 0.5001 | 69.753
